Reference: ChEMBL document CHEMBL1152762, “Medicinal chemistry approaches to the inhibition of dipeptidyl peptidase-4 for the treatment of type 2 diabetes” (Bioorg Med Chem, 2009)

What was measured:
[1] = molecular target: T1, Dipeptidyl peptidase 4 (Rattus norvegicus, UniProt P14740)
[2] = molecular target: Dipeptidyl peptidase 4 (Sus scrofa, UniProt P22411); assay: Inhibition of pig kidney DPP4
[3] = molecular target: T2, Dipeptidyl peptidase 2 (Homo sapiens, UniProt Q9UHL4)
[4] = tested on: Rattus norvegicus; assay: Ex-vivo inhibition of DPP4 in rat plasma at 10 mg/kg, po after 12 hrs; assay type: functional
[5] = Oral bioavailability in cynomolgus monkey; assay type: ADME, organism-based, Macaca fascicularis; details: in vivo
[6] = molecular target: Dipeptidyl peptidase 4 (Homo sapiens, UniProt P27487)
Sequence of Dipeptidyl peptidase 4 (Homo sapiens, UniProt P27487) (P27487 whole entry): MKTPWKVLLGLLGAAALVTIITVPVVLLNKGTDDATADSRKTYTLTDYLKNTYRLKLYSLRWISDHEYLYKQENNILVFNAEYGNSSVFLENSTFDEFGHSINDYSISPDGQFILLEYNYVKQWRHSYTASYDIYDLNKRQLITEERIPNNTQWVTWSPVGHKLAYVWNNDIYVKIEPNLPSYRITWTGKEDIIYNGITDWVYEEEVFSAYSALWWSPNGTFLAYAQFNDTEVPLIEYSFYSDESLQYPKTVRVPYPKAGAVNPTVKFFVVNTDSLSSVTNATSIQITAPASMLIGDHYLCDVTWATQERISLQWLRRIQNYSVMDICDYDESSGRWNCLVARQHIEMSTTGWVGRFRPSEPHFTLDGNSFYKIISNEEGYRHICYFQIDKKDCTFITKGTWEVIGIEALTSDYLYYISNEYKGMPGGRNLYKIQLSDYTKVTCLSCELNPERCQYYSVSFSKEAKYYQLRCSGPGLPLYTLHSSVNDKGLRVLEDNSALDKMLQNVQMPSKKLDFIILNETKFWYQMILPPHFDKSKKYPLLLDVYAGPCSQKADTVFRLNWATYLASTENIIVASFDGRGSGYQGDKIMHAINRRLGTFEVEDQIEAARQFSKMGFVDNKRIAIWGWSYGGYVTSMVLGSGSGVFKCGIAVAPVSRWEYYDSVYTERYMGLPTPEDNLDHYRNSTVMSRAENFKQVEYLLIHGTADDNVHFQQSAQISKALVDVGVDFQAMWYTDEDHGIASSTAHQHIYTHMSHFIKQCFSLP

[7] = molecular target: T1, Dipeptidyl peptidase 4; remark: listed apart in the source
[8] = tested on: Mus musculus; assay: Reduction of glucose excursion in C57BL6/N mouse at 3 mg/kg, po; assay type: functional; set-up: scale not given: the % may be the effect or the level left
[9] = organism: Rattus norvegicus
[10] = molecular target: Dipeptidyl peptidase 8 (Homo sapiens, UniProt Q6V1X1)
Sequence of Dipeptidyl peptidase 8 (Q6V1X1 whole entry): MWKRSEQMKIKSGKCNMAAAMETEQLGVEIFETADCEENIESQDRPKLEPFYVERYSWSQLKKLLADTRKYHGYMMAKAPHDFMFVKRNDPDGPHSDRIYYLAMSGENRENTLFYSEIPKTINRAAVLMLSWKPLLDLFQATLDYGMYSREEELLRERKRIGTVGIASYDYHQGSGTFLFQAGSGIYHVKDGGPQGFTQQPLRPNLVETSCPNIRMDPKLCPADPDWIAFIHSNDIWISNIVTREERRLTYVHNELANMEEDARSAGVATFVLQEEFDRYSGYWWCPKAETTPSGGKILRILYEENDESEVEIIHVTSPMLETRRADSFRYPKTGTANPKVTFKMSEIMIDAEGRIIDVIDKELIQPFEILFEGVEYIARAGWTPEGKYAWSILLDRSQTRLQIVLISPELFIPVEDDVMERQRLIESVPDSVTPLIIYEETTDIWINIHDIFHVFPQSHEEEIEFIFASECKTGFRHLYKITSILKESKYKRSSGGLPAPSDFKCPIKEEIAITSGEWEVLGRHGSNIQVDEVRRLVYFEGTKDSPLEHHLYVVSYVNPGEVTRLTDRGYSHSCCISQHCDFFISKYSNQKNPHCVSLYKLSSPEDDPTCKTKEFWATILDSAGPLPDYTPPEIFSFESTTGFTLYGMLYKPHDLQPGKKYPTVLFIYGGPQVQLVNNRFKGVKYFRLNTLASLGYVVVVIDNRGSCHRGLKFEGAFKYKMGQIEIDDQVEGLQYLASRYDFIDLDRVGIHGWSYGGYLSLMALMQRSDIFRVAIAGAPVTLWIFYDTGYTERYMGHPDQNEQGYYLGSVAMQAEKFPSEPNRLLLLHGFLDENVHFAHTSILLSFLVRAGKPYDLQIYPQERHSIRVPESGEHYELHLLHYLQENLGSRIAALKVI

[11] = molecular target: Dipeptidyl peptidase 9 (Homo sapiens, UniProt Q86TI2); assay: Inhibition of DPP9
Sequence of Dipeptidyl peptidase 9 (Q86TI2 whole entry): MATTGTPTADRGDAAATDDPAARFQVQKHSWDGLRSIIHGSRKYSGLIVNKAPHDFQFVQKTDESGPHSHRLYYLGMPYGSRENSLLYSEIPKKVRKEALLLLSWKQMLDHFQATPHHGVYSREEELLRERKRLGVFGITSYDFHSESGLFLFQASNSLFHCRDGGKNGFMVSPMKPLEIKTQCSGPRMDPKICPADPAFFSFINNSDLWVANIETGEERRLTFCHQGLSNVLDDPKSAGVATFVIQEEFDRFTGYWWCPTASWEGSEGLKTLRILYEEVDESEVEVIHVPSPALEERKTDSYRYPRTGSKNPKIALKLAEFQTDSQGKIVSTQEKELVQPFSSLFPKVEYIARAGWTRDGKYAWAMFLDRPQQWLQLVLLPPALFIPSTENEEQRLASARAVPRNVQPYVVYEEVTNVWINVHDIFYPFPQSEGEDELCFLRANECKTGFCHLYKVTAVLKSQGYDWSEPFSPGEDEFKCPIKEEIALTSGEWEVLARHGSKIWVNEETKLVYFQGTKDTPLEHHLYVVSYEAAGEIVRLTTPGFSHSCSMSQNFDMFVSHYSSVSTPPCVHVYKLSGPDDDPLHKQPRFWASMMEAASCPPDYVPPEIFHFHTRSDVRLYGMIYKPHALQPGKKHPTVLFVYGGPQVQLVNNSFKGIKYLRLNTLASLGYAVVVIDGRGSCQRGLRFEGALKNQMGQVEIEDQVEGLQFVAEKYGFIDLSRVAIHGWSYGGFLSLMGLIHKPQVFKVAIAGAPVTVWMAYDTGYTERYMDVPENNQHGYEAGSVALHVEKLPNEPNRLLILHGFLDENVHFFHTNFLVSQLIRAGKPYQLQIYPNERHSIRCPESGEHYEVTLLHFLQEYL

[12] = molecular target: T3, Prolyl endopeptidase FAP (Homo sapiens, UniProt Q12884); assay: Inhibition of FAP
T3 sequence (Q12884 whole entry): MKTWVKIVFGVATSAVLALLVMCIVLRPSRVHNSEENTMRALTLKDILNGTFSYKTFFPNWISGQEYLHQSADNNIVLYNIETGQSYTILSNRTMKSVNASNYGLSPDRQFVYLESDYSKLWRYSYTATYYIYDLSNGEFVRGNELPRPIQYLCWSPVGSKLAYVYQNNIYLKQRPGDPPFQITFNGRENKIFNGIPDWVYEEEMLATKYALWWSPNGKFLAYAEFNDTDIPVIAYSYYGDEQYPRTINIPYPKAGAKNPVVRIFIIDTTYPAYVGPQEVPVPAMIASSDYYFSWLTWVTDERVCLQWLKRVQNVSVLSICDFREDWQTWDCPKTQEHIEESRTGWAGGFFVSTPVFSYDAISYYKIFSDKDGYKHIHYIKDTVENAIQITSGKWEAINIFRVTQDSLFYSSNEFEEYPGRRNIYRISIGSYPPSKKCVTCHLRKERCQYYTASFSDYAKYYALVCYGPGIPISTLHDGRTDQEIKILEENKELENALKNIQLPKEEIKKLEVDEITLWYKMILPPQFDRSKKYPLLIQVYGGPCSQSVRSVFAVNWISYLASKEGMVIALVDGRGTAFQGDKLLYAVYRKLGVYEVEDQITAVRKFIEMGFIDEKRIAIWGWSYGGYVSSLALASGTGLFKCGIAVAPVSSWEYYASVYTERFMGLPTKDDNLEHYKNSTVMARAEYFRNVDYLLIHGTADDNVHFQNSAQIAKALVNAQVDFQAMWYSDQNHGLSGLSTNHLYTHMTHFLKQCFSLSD

[13] = organism: Rattus norvegicus; assay: animal or person; details: Plasma, 4 h, read-out: INH
[14] = organism: Rattus norvegicus; assay: animal or person; details: Plasma, 0.5 h, read-out: INH
[15] = molecular target: T2, Dipeptidyl peptidase 2; assay: Inhibition of DPP7
[16] = Cmax in Wistar rat at 1 mg/kg after 10 mins; assay type: ADME, organism-based; set-up: dose 1 mg/kg; details: in vivo
[17] = organism: Rattus norvegicus; assay: animal or person; details: Plasma, 6 h, read-out: INH
[18] = organism: Rattus norvegicus; assay: animal or person; details: Plasma, po, 6 h, read-out: INH
[19] = organism: Rattus norvegicus; assay: animal or person; details: Plasma, po, 10 h, read-out: INH
[20] = Oral bioavailability in Sprague-Dawley rat at 10 mg/kg; assay type: ADME, organism-based; details: in vivo
[21] = Half life in Sprague-Dawley rat at 10 mg/kg, po; assay type: ADME, organism-based; set-up: dose 10 mg/kg, route oral; details: in vivo
[22] = Stability in pH 7.4 buffer; assay type: physicochemical
[23] = Selectivity for DPP4 over DPP8
[24] = molecular target: Dipeptidyl peptidase 4 (Mus musculus, UniProt P28843); assay: Inhibition of mouse DPP4
Sequence of Dipeptidyl peptidase 4 (Mus musculus, UniProt P28843) (P28843 whole entry): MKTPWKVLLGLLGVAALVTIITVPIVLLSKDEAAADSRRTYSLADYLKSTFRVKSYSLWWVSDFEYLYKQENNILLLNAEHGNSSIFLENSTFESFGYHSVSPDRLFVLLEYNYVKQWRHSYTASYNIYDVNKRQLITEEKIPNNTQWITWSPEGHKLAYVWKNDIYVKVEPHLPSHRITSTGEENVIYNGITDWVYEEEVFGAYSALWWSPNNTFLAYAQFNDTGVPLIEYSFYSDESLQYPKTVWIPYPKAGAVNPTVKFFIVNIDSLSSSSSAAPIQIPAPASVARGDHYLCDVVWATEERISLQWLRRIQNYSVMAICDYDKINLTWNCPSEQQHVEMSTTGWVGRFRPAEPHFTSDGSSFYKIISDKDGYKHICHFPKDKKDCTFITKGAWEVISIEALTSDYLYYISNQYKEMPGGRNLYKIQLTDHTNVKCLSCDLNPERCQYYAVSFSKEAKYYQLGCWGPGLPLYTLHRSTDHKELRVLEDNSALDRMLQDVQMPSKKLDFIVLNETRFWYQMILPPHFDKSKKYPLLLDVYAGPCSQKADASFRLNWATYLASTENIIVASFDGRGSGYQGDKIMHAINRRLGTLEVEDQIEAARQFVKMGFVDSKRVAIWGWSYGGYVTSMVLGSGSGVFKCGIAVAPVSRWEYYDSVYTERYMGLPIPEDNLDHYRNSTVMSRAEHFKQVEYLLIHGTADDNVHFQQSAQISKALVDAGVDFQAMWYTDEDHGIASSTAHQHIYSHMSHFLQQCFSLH

T1 sequence (P14740 whole entry): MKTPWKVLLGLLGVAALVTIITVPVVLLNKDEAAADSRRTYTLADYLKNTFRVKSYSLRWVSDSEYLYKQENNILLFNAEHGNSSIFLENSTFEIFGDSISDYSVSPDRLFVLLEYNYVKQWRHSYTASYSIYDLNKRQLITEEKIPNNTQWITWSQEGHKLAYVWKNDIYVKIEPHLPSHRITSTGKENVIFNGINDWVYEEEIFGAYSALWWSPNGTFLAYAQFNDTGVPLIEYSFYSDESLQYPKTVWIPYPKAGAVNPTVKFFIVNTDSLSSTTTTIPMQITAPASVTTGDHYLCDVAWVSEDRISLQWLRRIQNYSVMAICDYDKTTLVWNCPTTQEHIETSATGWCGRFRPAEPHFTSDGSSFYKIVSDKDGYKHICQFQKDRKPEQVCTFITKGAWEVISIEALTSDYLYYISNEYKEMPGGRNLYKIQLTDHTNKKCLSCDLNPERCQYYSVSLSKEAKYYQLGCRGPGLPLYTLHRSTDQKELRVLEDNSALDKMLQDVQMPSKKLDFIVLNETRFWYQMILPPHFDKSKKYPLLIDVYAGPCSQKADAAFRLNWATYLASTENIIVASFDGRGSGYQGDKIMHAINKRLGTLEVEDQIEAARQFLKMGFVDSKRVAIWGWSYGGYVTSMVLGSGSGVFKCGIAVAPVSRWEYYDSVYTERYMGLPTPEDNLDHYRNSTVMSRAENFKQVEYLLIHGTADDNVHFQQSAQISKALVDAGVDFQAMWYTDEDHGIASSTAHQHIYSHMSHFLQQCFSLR
Sequence of Dipeptidyl peptidase 4 (Sus scrofa, UniProt P22411) (P22411 whole entry): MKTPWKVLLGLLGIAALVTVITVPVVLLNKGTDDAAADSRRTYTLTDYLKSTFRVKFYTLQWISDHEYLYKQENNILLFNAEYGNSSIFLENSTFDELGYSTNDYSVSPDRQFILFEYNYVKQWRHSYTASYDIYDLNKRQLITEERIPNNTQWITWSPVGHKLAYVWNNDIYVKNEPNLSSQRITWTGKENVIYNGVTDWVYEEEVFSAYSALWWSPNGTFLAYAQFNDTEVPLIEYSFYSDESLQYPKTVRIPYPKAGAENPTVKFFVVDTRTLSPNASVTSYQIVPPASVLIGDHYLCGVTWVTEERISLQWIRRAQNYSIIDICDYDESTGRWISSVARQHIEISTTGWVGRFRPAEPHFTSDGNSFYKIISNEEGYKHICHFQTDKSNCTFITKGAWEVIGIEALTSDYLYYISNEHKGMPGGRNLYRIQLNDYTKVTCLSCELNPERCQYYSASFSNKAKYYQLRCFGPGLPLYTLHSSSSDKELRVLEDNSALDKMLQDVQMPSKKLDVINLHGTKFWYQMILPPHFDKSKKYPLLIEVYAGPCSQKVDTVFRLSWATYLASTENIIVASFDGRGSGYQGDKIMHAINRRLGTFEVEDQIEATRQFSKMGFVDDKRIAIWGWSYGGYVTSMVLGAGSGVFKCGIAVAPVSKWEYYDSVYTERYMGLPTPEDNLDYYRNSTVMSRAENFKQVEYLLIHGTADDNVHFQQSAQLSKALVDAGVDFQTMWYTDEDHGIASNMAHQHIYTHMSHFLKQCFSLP

Structure (SMILES): N#Cc1ccc(NCCNCC(=O)N2N=CCC2C#N)nc1 (stereo unspecified)
- IC50 [1]: 780 nM
- IC50 [2]: 490 nM

Structure (SMILES): C[C@H](N)C(=O)N1CCC[C@H]1B(O)O
- Ki [3]: 125 nM

Structure (SMILES): N#Cc1ccccc1Cn1c(N2CCC[C@@H](N)C2)nc2ccc(F)cc2c1=O
- inhibition in vivo at 10 mg/kg [4]: 50%

Structure (SMILES): N#C[C@@H]1CCCN1C(=O)CNC12CC3CC(CC(O)(C3)C1)C2 [VILDAGLIPTIN]
- bioavailability [5]: > 90%

Structure (SMILES): CC(N)/C(F)=C1\CCC[C@@H]1C#N (stereo partly specified)
- IC50 [6]: 7690 nM

Structure (SMILES): N#Cc1ccc(N[C@@H]2CNC(C(=O)N3CCC[C@H]3C#N)C2)cc1C#N (stereo partly specified)
- IC50 [7]: 0.17 nM

Structure (SMILES): N[C@H](C(=O)N1CC[C@H](F)C1)[C@H]1CC[C@H](NS(=O)(=O)c2ccc(F)cc2F)CC1
- Activity [8]: 42%

Structure (SMILES): CC(c1nc(-c2ccc(S(C)(=O)=O)cc2Cl)no1)[C@H](N)C(F)=C1CCCC1.O=C(O)C(F)(F)F (stereo partly specified)
- IC50 [9]: 62%

Structure (SMILES): CN(C)C(=O)[C@@H](c1ccc(C2=CN3N=CNC3C=C2)cc1)[C@H](N)C(=O)N1CC[C@H](F)C1 (stereo partly specified)
- IC50 [10]: > 100000 nM
- IC50 [11]: > 100000 nM
- IC50 [3]: > 100000 nM

Structure (SMILES): CC(C)[C@H](Oc1ccc(CNC(=O)[C@@H]2CCCN2C(=O)C[C@H](N)Cc2cc(F)ccc2F)cc1)C(=O)O
- IC50 [10]: > 100000 nM
- IC50 [12]: 21000 nM
- IC50 [6]: 0.48 nM
- IC50 [11]: > 86000 nM
- IC50 [3]: > 100000 nM

Structure (SMILES): N#C[C@@H]1C[C@@H]2C[C@@H]2N1C(=O)[C@@H](N)C12CC3CC(CC(O)(C3)C1)C2 [SAXAGLIPTIN ANHYDROUS]
- inhibition in vivo at 4 µmol/kg [13]: 87%
- inhibition in vivo at 4 µmol/kg [14]: 87%

Structure (SMILES): O=C(CNC12CC3CC(CC(C3)C1)C2)N1CCC[C@H]1B(O)O
- IC50 [6]: 8 nM
- IC50 [15]: 420 nM

Structure (SMILES): CC[C@H](C)[C@H](N)C(=O)N1C[C@@H](F)C[C@H]1C#N
- Cmax [16]: 372 ng/mL

Structure (SMILES): CC(C)=CCN1C(C2CC[C@H]3NCC[C@@H]23)=NC2C1C(=O)N(CC(=O)c1ccccc1)C(=O)N2C (stereo partly specified)
- IC50 [6]: 18 nM

Structure (SMILES): COc1ccc(CS(=O)(=O)C(C)(C)[C@H](N)C(=O)N2C[C@@H](F)C[C@H]2C#N)cc1
- inhibition in vivo at 1 mg/kg [17]: 84%

Structure (SMILES): Cc1ccc(O)c(C)c1[C@@H]1CN[C@H](C(=O)N2CCC[C@H]2C#N)C1
- inhibition in vivo at 1 mg/kg [18]: 95%
- inhibition in vivo at 1 mg/kg [19]: 83%

Structure (SMILES): N#Cc1ccc(N[C@@H]2CN[C@H](C(=O)N3CCSC3)C2)nc1
- IC50 [1]: 30.4 nM
- bioavailability [20]: 83.9%
- half-life [21]: 5.27 h

Structure (SMILES): N#C[C@@H]1CCCN1C(=O)[C@@H](N)C1CCCCC1
- half-life [22]: > 48 h

Structure (SMILES): N[C@H](C(=O)N1CCCC1)[C@H]1CC[C@H](NS(=O)(=O)c2ccc(F)cc2F)CC1
- Activity [8]: 36%

Structure (SMILES): CC(C)(C)C(NC(=O)C[C@@H](N)C(=O)N1CCC[C@H]1C#N)c1ccccc1 (stereo partly specified)
- IC50 [6]: 251 nM
- Selectivity ratio [23]: 53

Structure (SMILES): CC1(NCC(=O)N2C[C@H](F)C[C@@H]2C#N)CCN(S(C)(=O)=O)CC1
- IC50 [24]: 2.6 nM

Structure (SMILES): COc1ccccc1N1CCc2nc(C)c(CN)c(-c3ccc(Cl)cc3Cl)c2C1=O
- IC50 [6]: 2.28 nM

Structure (SMILES): CC(N)/C(F)=C1\CCC[C@@H]1C#N (single isomer, unassigned; diastereomer 2)
- IC50 [6]: 6030 nM
